Columns and labels:
mPGES-1 = target: T1, mPGES-1 (Homo sapiens, UniProt O14684); conditions: literature values (Thoren et al. 2000; Mancini et al. 2001; Quraishi et al. 2002); read-out: IC50 for inhibition of mPGES-1; cited from earlier work
T1 sequence (O14684 1-152): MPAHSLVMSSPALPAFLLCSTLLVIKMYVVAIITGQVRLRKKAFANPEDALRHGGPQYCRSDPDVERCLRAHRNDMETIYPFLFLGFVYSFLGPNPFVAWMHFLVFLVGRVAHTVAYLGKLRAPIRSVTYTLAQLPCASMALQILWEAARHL

[1] = PGE2-induced febrile response after intracerebroventricular injection, telemetric body temperature; type: in vivo, mice; conditions: 4 nmol PGE2 intracerebroventricular
Description: We confirmed the absence of overt physiological signaling defects by ensuring that PGE2-evoked (the missing product in mPGESl1^−/− mice that is generated following LPS challenge) pyresis was indeed intact in mPGES1^−/− mice. We performed intracerebroventricular injections of PGE2 (4 nmol in 2 μl artificial cerebrospinal fluid) and then monitored using telemetry the body temperature in awake and unrestrained animals. […] Thus, a pronounced temperature increase was seen almost immediately after the PGE2 injection. It reached its peak after 30 minutes and lasted for about 1.5 hour. To determine that the elicited febrile response was due to specific activation of PGE2 receptors and not represented an unspecific response, we injected the same amount of PGE2 into EP3 receptor^−/− mice as we had injected into mPGES-1^−/− mice.
Telemetric temperature recordings: One week prior to each experiment, a temperature transmitter (Data Science International) was implanted into the peritoneal cavity of each mouse. Recordings were made via a receiver located beneath the cage and the data were fed into a computer. Recordings started at least one hour prior to surgery or injection, and were obtained every second minute throughout the entire session.
Intracerebroventricular injections of PGE2: Mice were mounted in a stereotaxic frame under anesthesia with 1% isoflurane in a 30/70% mixture of O2/N2, and kept at 37° C. through a feedback controlled heating pad. A drill hole was made in the skull through which a 29 gauge (o.d.) needle connected by a silicon tube to a Hamilton syringe was inserted into the lateral ventricle (0.5 mm posterior to Bregma, 1 mm lateral to midline, and 2.5 mm vertical to the skull surface), and 4 nmol PGE2 in 2 μl artificial cerebrospinal fluid was injected during 1 min. Control injection consisted of artificial cerebrospinal fluid. Two minutes after the end of the injection, the needle was removed, the skin sutured, and the gas anesthesia turned off. All animals were awake within 5 min after injection and were immediately returned to their home cage for resumed body temperature recordings.

| Compound | IC50 (mPGES-1) | duration of temperature increase [1] | time to peak of temperature increase after injection [1] | febrile response ([1]; EP3 receptor−/− mice) | temperature elevation ([1]; mPGES+/+ mice) | febrile response ([1]; mPGES-1−/− mice) |
| --- | --- | --- | --- | --- | --- | --- |
| CCCCCC=CCC=CC=CC=CC(SCC(NC(=O)CCC(N)C(=O)O)C(=O)NCC(=O)O)C(O)CCCC(=O)O [leukotriene C4, 5(S)-hydroxy-6(R)-S-glutathionyl-7,9-trans-11,14-cis-eicosa-tetraenoic acid] | 5 µM | – | – | – | – | – |
| CCCCC[C@H](O)/C=C/[C@H]1[C@H](O)CC(=O)[C@@H]1C/C=C\CCCC(=O)O (relative stereo) [PGE2, 11α, 15(S)-dihydroxy-9-ketoprosta-5-cis-13-trans-dienoic acid] | – | about 1.5 hour | 30 min | did not display any febrile response | rapid and pronounced temperature elevation | rapid and strong febrile response |
